Measurements: patent publication US11464840B2, “Universal non-classical MHC I vaccines: HLA-E-restricted antigenic peptides as universal vaccines to treat allergy, inflammation, autoimmune and infectious diseases, and cancers” (priority 2019, dated 2022)
Values joined by “and” are separate entries in the source; they are usually repeats but may differ in a detail not shown here. Equal values may be shown once. Ends that are not written are not given here.

How the values were obtained:
Derlin-1 mRNA [1] = assay: Derlin-1 mRNA knockdown by siRNA in monocyte-derived dendritic cells (qPCR, ΔΔCt); assay type: cell-based, human; details: for Derlin-1 mRNA knockdown (KD): MODC
Procedure: (§1) Table 1: Summary of Derlin-1 Knockdowns with Various siRNAs. Cells transfected in 12 well plate at 60%-80% confluency. one ul Viromer blue was used per 1 ml final volume. Cells were lysed via centrifugation and resuspended in TRI reagent at time points of either 6 h, 24 h, and 48 h. Lysates were split for both protein verification and qPCR. Knockdowns are estimated using the ΔΔCt method. […] Anti-Derlin-1 siRNA was designed using MITs website (sirna.wi.mit.edu) and siRNA design software (dharmacon.horizondiscovery.com/rnai/sirna). SiRNA were chosen based on the criteria that they would bind no more than 15 nucleotides on off-target mRNA and that they would be capable of knockdown for all four of the Derlin-1 mRNA isoforms. Additionally, siRNAs with 40-60% GC content, no more than 3 identical nucleotides in a row, and 3′ UU overhangs were used. The first siRNA (SEQ ID NO: 65, 5′-[…]-3′) was purchased from TriLink Biotechnologies and the second (SEQ ID NO: 66, 5′-[…]-3′) was purchased from Horizon Discovery. A third, modified siRNA with sequence 5′-SEQ ID NO: 67, O′me/G/O′me/[…]-3′ and DNA bases on the 1st and 8th nucleotide of the antisense strand was also designed and purchased from Horizontal Discovery. Scramble siRNAs were purchased from Horizontal Discovery (D-001810-10-05, ON-TARGET plus Non-targeting Pool).
(§2) Derlin-1 forms an integral part of the […] machinery required for transporting classical MHCI, e.g., HLA-A, -B, -C for proteasome degradation. […] In contrast, the protein band of Derlin-1 is entirely missing in Derlin-1 siRNA-treated MoDCs. Transfection of the primary cells were performed using PEI reagents (Viromer Blue vs. Viromer Red). The embodiment of the invention is three-fold. One aspect of the embodiment resides in treating APC with Derlin-1 RNA interference to prevent the generation of endogenous leader peptide as well as to cause dissociation of the HLA-E bound endogenous leader peptides so that Derlin-1-treated APC can be fully loaded with the HLA-E vaccines in the presence of the second costimulatory signal for immune induction.

Derlin-1 mRNA [2] = assay: Derlin-1 mRNA knockdown by siRNA in T2 cells (qPCR, ΔΔCt); assay type: cell-based, human; details: for Derlin-1 mRNA knockdown (KD): 6 Hours
Procedure: as §1, with “Pool). […]” for “Pool).”

Derlin-1 mRNA [3] = assay: Derlin-1 mRNA knockdown by siRNA in B721.221 cells (qPCR, ΔΔCt); assay type: cell-based, human; details: 6 hours
Procedure: as §1, with “Pool). […]” for “Pool).”

Derlin-1 = Derlin-1 knockdown protein verification by Western blot in MoDCs; assay type: cell-based, human
Excerpt: FIG. 9. Derlin-1 siRNA knocked down Derlin-1 translation in dendritic cells and B and T cell tumors by western blots. (A) Comparison of two different PEI reagent. Viromer blue vs Viromer red with respect to Cy3-labeled siRNA (B) and toxicity (C). Derlin-1 Knockdown Protein Verification by Western Blot (A). Confirms the knockdown of protein levels in MoDCs by Derlin-1 siRNA #2. For Lanes 1, 2, 5, and 6, the respective knockdowns were 49%, 57%, 67%, and 72%. Scramble included at concentration of 25 nM in wells (3) and (7). Wells (4) and (8) contain RPMI medium only. Mouse Anti-Derlin-1 mAb added at concentration of 1:1000 and Goat Anti-mouse IgG1 added at 1:10,000. (B) Transfection Ability of Viromer red/blue vs Lipofectamine RNAiMax. TAP-deficient T2-cells transfected with cy3-conjugated siRNA at 10 nM using manufacturer's recommended protocol for each reagent. Cells were stained, fixed, and detected 24 hours after transfection. PE laser was used to detect cells on BD LSR II. A shift to the right indicates a more efficient transfection reagent. (C) Cytotoxicity of Viromer RED/BLUE vs Lipofectamine RNAiMax. Extracellular staining of T2 cells with Annexin V was used to determine the number of cells undergoing active apoptosis after transfection with each reagent. BV421 laser was used to detect cells on BD LSR II. Cells were stained, fixed, and detected 24 hours after transfection.
as §2

HLA-E = assay: Surface HLA-E expression in immature MoDC cells (FACS); assay type: cell-based, human; details: 100 nM SR11237, 100 nM Bexarotene or Interferon-β 1,000 U, 4 days
Procedure: FIG. 5. […] MoDCs were then collected and stained with fluorescence-conjugated antibody; APC-conjugated anti-CD83 (Biolegend) and PE-conjugated HLA-E (Biolegend) followed by fixation with 2% paraformaldehyde. Phenotype and HLA-E expression of MoDCs were performed by using a FACS, LRSII flow cytometry and the data were processed by using the Flowjo software.

HLA-G [4] = assay: Surface HLA-G expression in immature MoDC cells (FACS); assay type: cell-based, human; details: 100 nM SR11237, 100 nM Bexarotene or Interferon-β 1,000 U, 4 days
HLA-G [5] = assay: Surface HLA-G expression of CD8 T cells co-cultured with peptide-pulsed MoDCs (FACS); assay type: cell-based, human; details: immature and mature MoDC pulsed with A2 peptides of IgE epitope, SR11237 100 nmol/L, co-culture 5 days
Procedure: FIG. 7. Modulation of HLA-G by RXR agonist. Surface HLA-G expression of CD8 T cells was observed induced by RXRα agonist, SR11237 (100 nmol/L)-treated immature (A) and mature (B) MoDCs in presence of A2 mix peptides (Biomatik). MoDCs isolated from A2 type of PBMCs, were cultured in 10% FBS RPMI with 200 U/ml IL-4 and 100 U/ml GM-CSF for 5 days as immature MoDCs and then proceeded for maturation with addition of cytokines cocktail containing TNFα (10 ng/ml), PGE2 (1 μg/ml), IL-6 (150 ng/ml) and IL-1β (5 ng/ml) (Biolegend) for another two days. Both mature and immature MoDC were incubated with SR11237 for 2 days and pulsed with A2 peptides of IgE epitope for 4 hr. Then MoDCs were co-cultured in anti-CD3 (10 μg/ml) coated plate for 5 days with T cells isolated from PBMCs by adhering PBMC to 100×20 mm plate and collecting suspended cells. Cells were then collected and stained with Alex Fluor 488-conjugated human CD8 and PE-Cy 7-conjugated human HLA G followed by fixation with 2% paraformaldehyde. Phenotype and HLA G expression of T cells were performed by using a FACS, LRSII flow cytometry, data were processed as describe above.

the three HLA-E preps [6] = assay: ELISA: renatured complex captured on anti-HLA-E coated plate, bound biotinylated peptide detected with HRP-avidin; peptide at 0.1 µg/ml
the three HLA-E preps [7] = assay: ELISA: renatured complex captured on anti-HLA-E coated plate, bound biotinylated peptide detected with HRP-avidin; peptide at 1.0 µg/ml

5′-GGACUUGGGAGGAAGAAAUUU-3′ (listed as RNA, chemistry not given here; listed as Homo sapiens) [Derlin siRNA #2]
Derlin-1 mRNA knockdown (KD) (Derlin-1 mRNA [1]; 25 nM siRNA, Day 1): 49%
Derlin-1 mRNA knockdown (KD) (Derlin-1 mRNA [1]; 25 nM siRNA, Day 2): 67%
Derlin-1 mRNA knockdown (KD) (Derlin-1 mRNA [1]; 50 nM siRNA, Day 1): 57%
Derlin-1 mRNA knockdown (KD) (Derlin-1 mRNA [1]; 50 nM siRNA, Day 2): 72%
effectiveness in reducing Derlin-1 mRNA levels, compared among siRNAs (Derlin-1 mRNA [1]; monocyte-derived dendritic cells): most effective
Derlin-1 mRNA knockdown (KD) (Derlin-1 mRNA [2]; T2, 2.5 nM siRNA): 62%
Derlin-1 mRNA knockdown (KD) (Derlin-1 mRNA [2]; T2, 5 nM siRNA): 43%
Derlin-1 mRNA knockdown (KD) (Derlin-1 mRNA [2]; T2, 10 nM siRNA): 34%
effectiveness in reducing Derlin-1 mRNA levels, compared among siRNAs (Derlin-1 mRNA [2]; T2 cells): most effective
Derlin-1 mRNA knockdown (KD) (Derlin-1 mRNA [3]; B721.221, 5 nM siRNA): 52%
Derlin-1 mRNA knockdown (KD) (Derlin-1 mRNA [3]; B721.221, 10 nM siRNA): 50%
Derlin-1 knockdown, FIG. 9 Western blot (Derlin-1; Lane 1): 49%
Derlin-1 knockdown, FIG. 9 Western blot (Derlin-1; Lane 2): 57%
Derlin-1 knockdown, FIG. 9 Western blot (Derlin-1; Lane 5): 67%
Derlin-1 knockdown, FIG. 9 Western blot (Derlin-1; Lane 6): 72%

CC1(C)CCC(C)(C)c2cc(C3(c4ccc(C(=O)O)cc4)OCCO3)ccc21 [SR11237, reference compound]
HLA-E expression of immature MoDC cells (HLA-E): dramatically induced
HLA-G expression of immature MoDC cells (HLA-G [4]): little or no effect
HLA G expression in CD8+ T cells (HLA-G [5]): no further increase

NPRKVTAYL (also: biotinylated, position not given here) [biotinylated HLA-A2 leader peptide (SEQ ID NO: 50, …)]
OD (the three HLA-E preps [6]): 0.02 OD
OD (the three HLA-E preps [7]): 0.2 OD and > 0.3 OD
fold increment of OD (against the 0.02 OD at 0.1 µg/ml peptide) (the three HLA-E preps [7]): 10 fold and 15 fold
